Source: patent publication US20240294489A1 (Captor Therapeutics S.A., priority 2020, published 2024)
pIC50: −log10 of the molar value.

Columns and labels:
Assay type in all cases: cell-based
U-937 = test: Cell viability, additional cell lines (CellTiter-Glo), U-937; conditions: Homo sapiens, U-937, 72 h; read-out: Absolute IC50
Protocol: (§1) Tumor cells are grown at 37° C. in a humidified atmosphere with 5% CO2 in RPMI 1640 medium, supplemented with 10% (v/v) fetal calf serum and 50 μg/ml gentamicin for up to 20 passages, and are passaged once or twice weekly.
(§2) Cells are harvested from exponential phase cultures, counted and plated in 96 well flat-bottom microtiter plates at a cell density depending on the cell line's growth rate (4,000-20,000 cells/well depending on the cell line's growth rate, up to 60,000 for hematological cancer cell lines) in RPMI 1640 medium supplemented with 10% (v/v) fetal calf serum and 50 μg/ml gentamicin (140 μl/well). Cultures are incubated at 37° C. and 5% CO2 in a humidified atmosphere. After 24 h, 10 μl of test compounds or control medium are added and left on the cells for another 72 h. Compounds are serially diluted in DMSO, transferred in cell culture medium, and added to the assay plates by using a Tecan Freedom EVO 200 robotic platform. The DMSO concentration is kept constant at 0.3% v/v across the assay plate. Viability of cells is quantified by the CellTiter-Glo® cell viability assay (Promega G8462). After incubation of cells, 100 μl of CellTiter-Glo® One Solution Assay reagent are added to each well. Plates are shaken for 2 minutes to induce cell lysis and incubated for 20 minutes prior to reading luminescence (LU) by using the EnVision® Xcite multilabel plate reader (Perkin Elmer). […]

EOL-1 = test: Cell viability, additional cell lines (CellTiter-Glo), EOL-1; conditions: Homo sapiens, EOL1; EOL-1, 72 h; read-out: Absolute IC50
Protocol: as §1, §2

OCI-AML2 = test: Cell viability, additional cell lines (CellTiter-Glo), OCI-AML2; conditions: Homo sapiens, OCI-AML2, 72 h; read-out: Absolute IC50
Protocol: as §1, §2

MOLM-13 = test: Cell viability, additional cell lines (CellTiter-Glo), MOLM-13; conditions: Homo sapiens, MOLM-13, 72 h
Protocol: as §1, §2

IM-9 = test: Cell viability, additional cell lines (CellTiter-Glo), IM-9; conditions: Homo sapiens, IM-9, 72 h; read-out: Absolute IC50
Protocol: as §1, §2

SALL4 = molecular target: T1, SALL4 (Homo sapiens, UniProt Q96SW2+Q9UJQ4); test: SALL4 degradation assay, Kelly cell line (Western blot densitometry); conditions: Kelly cells, 100 nM, 24 h, average from n ≥ 2 experiments
T1 construct: SALL4 degradation in the Kelly cell line was investigated; endogenous in cells; host or cells: Kelly
T1 sequence (Q9UJQ4 whole entry): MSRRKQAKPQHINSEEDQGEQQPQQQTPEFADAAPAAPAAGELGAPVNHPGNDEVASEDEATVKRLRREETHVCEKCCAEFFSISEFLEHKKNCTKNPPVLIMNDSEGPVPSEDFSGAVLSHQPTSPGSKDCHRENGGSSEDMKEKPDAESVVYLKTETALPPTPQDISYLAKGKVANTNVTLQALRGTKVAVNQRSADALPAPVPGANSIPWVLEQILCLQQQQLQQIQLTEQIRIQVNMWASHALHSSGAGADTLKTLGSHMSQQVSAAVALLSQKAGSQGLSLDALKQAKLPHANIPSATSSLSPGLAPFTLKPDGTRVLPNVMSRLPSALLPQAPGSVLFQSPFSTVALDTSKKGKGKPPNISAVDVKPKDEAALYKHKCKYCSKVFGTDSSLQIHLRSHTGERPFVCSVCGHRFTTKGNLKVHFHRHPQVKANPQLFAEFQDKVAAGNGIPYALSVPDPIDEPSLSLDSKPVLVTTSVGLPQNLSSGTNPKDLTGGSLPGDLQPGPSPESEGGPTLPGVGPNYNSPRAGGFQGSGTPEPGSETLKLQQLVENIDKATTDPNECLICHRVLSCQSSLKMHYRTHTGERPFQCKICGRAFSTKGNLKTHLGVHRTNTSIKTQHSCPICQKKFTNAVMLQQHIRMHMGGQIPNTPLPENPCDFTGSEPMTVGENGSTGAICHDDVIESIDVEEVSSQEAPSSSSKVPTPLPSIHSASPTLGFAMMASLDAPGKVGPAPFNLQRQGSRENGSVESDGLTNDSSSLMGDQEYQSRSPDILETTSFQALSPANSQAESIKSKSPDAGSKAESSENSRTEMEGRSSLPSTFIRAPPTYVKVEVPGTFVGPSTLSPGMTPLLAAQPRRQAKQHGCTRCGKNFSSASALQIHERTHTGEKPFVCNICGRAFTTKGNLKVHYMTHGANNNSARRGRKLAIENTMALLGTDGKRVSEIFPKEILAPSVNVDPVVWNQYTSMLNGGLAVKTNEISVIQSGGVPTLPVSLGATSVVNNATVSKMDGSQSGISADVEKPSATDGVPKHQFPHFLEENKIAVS
T1 sequence (Q96SW2 whole entry): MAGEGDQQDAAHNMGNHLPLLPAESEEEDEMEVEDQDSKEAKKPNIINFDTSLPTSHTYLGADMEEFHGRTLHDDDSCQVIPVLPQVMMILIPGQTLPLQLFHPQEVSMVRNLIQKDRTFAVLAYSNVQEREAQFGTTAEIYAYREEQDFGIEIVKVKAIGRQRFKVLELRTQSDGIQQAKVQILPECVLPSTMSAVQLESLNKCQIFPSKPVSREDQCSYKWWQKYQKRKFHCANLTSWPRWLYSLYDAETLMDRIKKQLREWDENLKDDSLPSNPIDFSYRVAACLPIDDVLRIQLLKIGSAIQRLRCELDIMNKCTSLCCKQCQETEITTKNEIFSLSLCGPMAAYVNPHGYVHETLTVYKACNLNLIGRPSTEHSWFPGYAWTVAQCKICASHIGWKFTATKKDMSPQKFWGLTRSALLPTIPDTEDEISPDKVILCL
T1 sequence (Q16531 whole entry partner): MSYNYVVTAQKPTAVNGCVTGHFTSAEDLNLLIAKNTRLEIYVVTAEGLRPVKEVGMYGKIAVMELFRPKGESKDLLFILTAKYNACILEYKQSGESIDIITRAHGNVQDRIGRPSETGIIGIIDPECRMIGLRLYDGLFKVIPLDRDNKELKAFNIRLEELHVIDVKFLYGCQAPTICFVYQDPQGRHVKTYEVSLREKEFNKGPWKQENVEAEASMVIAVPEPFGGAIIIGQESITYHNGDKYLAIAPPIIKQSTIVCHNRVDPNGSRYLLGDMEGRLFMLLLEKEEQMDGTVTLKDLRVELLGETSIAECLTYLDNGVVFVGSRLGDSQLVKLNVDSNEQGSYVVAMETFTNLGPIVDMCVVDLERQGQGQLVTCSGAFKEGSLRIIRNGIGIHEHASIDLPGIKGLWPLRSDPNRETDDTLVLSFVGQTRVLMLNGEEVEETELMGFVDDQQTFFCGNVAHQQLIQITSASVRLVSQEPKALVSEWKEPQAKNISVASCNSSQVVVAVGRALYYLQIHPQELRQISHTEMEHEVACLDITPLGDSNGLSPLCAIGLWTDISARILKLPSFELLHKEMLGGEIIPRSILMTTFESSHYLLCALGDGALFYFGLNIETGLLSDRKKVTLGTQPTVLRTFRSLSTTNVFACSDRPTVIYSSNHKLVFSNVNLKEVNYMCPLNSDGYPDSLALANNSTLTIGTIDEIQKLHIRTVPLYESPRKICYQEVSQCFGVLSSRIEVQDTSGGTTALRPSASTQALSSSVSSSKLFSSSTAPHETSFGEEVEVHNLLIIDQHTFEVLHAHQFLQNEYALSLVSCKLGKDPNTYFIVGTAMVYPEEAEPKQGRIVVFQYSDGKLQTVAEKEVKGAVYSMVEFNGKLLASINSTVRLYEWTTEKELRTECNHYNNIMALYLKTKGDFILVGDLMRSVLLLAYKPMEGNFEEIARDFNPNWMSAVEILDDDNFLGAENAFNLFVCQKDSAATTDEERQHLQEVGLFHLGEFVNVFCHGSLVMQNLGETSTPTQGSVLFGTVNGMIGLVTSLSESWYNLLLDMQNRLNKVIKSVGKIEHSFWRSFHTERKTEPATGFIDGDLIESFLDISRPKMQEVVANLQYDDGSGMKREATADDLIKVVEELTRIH
Protocol: Cells were seeded on 6- or 12-well plates, and the compounds to be tested were added at the desired concentration range. […] After 24 h incubation (37° C., 5% CO2), cells were harvested, washed and cell lysates were prepared using RIPA lysis buffer. The amount of protein was determined via BCA assay, and the appropriate quantity was then loaded on the precast gel for the protein separation. After primary and secondary Ab staining, the membranes were washed and signals developed. The densitometry analysis was implemented to obtain the numeric values used later in the protein level evaluation process.

MOLM-1 = test: Cell viability, additional cell lines (CellTiter-Glo), MOLM-1; conditions: MOLM-1, 72 h
Protocol: as §1, §2

MOLT-3 = test: Cell viability, additional cell lines (CellTiter-Glo), MOLT-3; conditions: Homo sapiens, MOLT-3, 72 h
Protocol: as §1, §2

Hep3B cells = test: Cell survival clonogenic assay, Hep3B; conditions: 0.1-10 μM, crystal violet staining after 9-10 days
Protocol: To determine the ability of a single cell to form a colony (defined as a cluster of at least 50 cells), Kelly and Hep3B cells were maintained in RPM11640 (Kelly) or EMEM (Hep3B) medium, supplemented with penicillin/streptomycin and 10% FBS. The cells were counted and seeded on the 6-well plates, at the density of 1×10^3 cells per well, the compounds to be tested were added at the desired concentration range, and the cells were cultured at 37° C./5% CO2. After colony formation (9-10 days), the cells were washed and treated with 6.0% glutaraldehyde and 0.5% crystal violet mix for 30 min., followed by rinsing with water and drying at room temperature (RT).

H929 cells = test: Cell viability CTG assay, H929; design: key to Geomean absolute IC50 by molecule, 72 H: Inactive represents IC50 > 50 μM; C represents 50 μM ≥ IC50 > 5 μM; conditions: H929, 72 h, 0.001-50 μM
In short: (§3)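 Cells exposed to compound at 0.25% v/v DMSO for 72 h (37° C., 5% CO2). ATP quantified by CellTiter-Glo luminescence, normalized to DMSO control. Absolute IC50 (T/C=50%) by non-linear regression on duplicate means; geometric mean used for averages.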

KG-1 cells = test: Cell viability CTG assay, KG-1; conditions: Homo sapiens; KG-1, 72 h, 0.001-50 μM; read-out: KG-1 Geomean absolute IC50 by molecule, 72 H
In short: as §3

Ikaros (IKZF1) = molecular target: T2, Ikaros (IKZF1) (Homo sapiens, UniProt Q13422+Q96SW2); test: Ikaros degradation assay, H929 cell line; conditions: NCI-H929, H929 cells, 24 h, read-out: % of IKZF1 protein reduction
T2 construct: Ikaros degradation in the H929 cell line was investigated; endogenous in cells; host or cells: H929
T2 sequence (Q13422 whole entry): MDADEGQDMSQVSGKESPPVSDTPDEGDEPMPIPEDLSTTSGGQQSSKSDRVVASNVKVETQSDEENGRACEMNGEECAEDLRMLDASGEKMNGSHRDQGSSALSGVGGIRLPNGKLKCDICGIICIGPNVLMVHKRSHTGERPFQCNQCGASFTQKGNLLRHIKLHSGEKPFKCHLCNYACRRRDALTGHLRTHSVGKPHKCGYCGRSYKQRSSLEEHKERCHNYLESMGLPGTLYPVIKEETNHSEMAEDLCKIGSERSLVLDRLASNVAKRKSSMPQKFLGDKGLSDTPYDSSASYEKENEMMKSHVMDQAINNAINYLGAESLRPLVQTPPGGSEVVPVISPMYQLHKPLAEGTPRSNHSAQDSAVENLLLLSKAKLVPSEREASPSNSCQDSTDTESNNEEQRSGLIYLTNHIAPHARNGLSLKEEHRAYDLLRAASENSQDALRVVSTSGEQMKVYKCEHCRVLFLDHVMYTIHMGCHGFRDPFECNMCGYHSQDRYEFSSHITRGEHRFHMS
T2 sequence (Q96SW2 whole entry): as the sequence (Q96SW2 whole entry) above
T2 sequence (Q16531 whole entry partner): as the sequence (Q16531 whole entry partner) above
In short: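 Cells were exposed to test compounds over a concentration range for 24 h at 37° C, 5% CO2, then lysed in RIPA buffer. Equal protein (BCA) was resolved by SDS-PAGE and immunoblotted. Band densitometry gave the protein levels used for evaluation.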

[1] = 9.5 μM, read-out: Test/Control viability at 9.5 μM

pIC50 (U-937): < 4.52 | pIC50 (OCI-AML2): < 4.52 | pIC50 (MOLM-13; read-out: Absolute IC50): ≤ 4.52 | % of SALL4 protein reduction (SALL4): >80% | pIC50 (MOLM-1; read-out: Absolute IC50): ≥ 7.00 | pIC50 (MOLT-3; read-out: Absolute IC50): ≤ 4.52 | Geomean absolute IC50 by molecule, 72 H (H929 cells): Inactive | inhibition at 10 µM (Ikaros (IKZF1); 10 uM): 0 to 24% | inhibition at 20 µM (Ikaros (IKZF1); 20 uM): 0 to 24%
Structure (SMILES): NCc1ccc2c(c1)CN(C1CCC(=O)NC1=O)C2=O (stereo not shown) [Compound 1, 3-(5-(aminomethyl)-1-oxoisoindolin-2-yl)piperidine-2,6-dione]
pIC50 (EOL-1): < 4.52 | viability at 9.5 µM (MOLM-13; [1]): ≤ 60% | pIC50 (IM-9): < 4.52 | viability at 9.5 µM (MOLM-1; [1]): ≤ 30% | viability at 9.5 µM (MOLT-3; [1]): ≤ 60% | survival of the cells (colony formation) (Hep3B cells): in most cases inhibited | pIC50 (KG-1 cells): ≥ 7.00
